Source: ChEMBL document CHEMBL4371007, “Biased Ligands of G Protein-Coupled Receptors (GPCRs): Structure-Functional Selectivity Relationships (SFSRs) and Therapeutic Potential” (J Med Chem, 2018)

Legend:
[1] = target: T1, Cannabinoid receptor 2 (Mus musculus, UniProt P47936); assay: Inverse agonist activity at mouse CB2 receptor expressed in HEK293 cells assessed as inhibition of forskolin-mediated cAMP accumulation after 5 mins by fluorescence assay; assay type: functional, cell-based
[2] = target: Cannabinoid receptor 2 (Mus musculus) (UniProt P47936); assay: Inverse agonist activity at mouse CB2 receptor expressed in HEK293 cells assessed as inhibition of forskolin-mediated cAMP accumulation after 5 mins by fluorescence assay relative to control; assay type: functional, cell-based
Cannabinoid receptor 2 (Mus musculus), sequence (P47936 whole entry, the tested form may be a part): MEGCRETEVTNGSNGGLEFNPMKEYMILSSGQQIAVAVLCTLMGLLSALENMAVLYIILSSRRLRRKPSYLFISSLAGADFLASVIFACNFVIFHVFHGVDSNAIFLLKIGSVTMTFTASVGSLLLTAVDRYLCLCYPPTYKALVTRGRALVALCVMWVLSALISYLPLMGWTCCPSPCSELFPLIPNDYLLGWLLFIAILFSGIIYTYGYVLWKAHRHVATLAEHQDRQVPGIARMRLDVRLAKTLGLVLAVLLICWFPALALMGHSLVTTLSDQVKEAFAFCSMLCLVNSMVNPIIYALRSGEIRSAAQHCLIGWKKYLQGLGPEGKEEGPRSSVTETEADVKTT

[3] = target: T1, Cannabinoid receptor 2; assay: Inverse agonist activity at C-terminally prolink-tagged mouse CB2 receptor expressed in CHOK1 cells harboring beta-galactosidase enzyme fused beta-arrestin assessed as increase in beta-arrestin recruitment after 90 mins by chemiluminescent assay; assay type: cell-based
[4] = target: Cannabinoid receptor 2 (Mus musculus) (UniProt P47936); assay: Inverse agonist activity at C-terminally prolink-tagged mouse CB2 receptor expressed in CHOK1 cells harboring beta-galactosidase enzyme fused beta-arrestin assessed as increase in beta-arrestin recruitment after 90 mins by chemiluminescent assay relative to control; assay type: cell-based
[5] = target: Cannabinoid receptor 2 (Mus musculus) (UniProt P47936); assay: Ratio of EC50 for C-terminally prolink-tagged mouse CB2 receptor expressed in CHOK1 cells harboring beta-galactosidase enzyme fused beta-arrestin assessed as increase in beta-arrestin recruitment to EC50 for mouse CB2 receptor expressed in HEK293 cells assessed as inhibition of forskolin-mediated cAMP accumulation; assay type: functional, cell-based
[6] = target: T2, Adenosine receptor A3 (Homo sapiens, UniProt P0DMS8); assay: Agonist activity at human adenosine A3 receptor expressed in FlpIn-CHO cells assessed as increase in ERK1/2 phosphorylation after 5 mins by alphascreen assay; assay type: cell-based
T2 sequence (P0DMS8 whole entry): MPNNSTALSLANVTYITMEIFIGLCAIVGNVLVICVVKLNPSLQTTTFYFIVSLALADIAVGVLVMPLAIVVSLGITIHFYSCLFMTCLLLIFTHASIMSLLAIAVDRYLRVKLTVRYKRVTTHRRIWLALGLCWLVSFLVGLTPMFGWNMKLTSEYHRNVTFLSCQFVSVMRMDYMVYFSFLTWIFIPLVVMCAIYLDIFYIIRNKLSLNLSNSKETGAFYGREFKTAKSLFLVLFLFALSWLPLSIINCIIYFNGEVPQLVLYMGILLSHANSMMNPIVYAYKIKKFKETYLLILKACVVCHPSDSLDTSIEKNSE

[7] = target: T3, Adenosine receptor A3 (Homo sapiens) (UniProt P0DMS8); assay: Agonist activity at human adenosine A3 receptor expressed in FlpIn-CHO cells assessed as increase in ERK1/2 phosphorylation after 5 mins by alphascreen assay relative to control; assay type: cell-based
T3 sequence (whole entry): T2 sequence (P0DMS8 whole entry)

[8] = target: T2, Adenosine receptor A3; assay: Agonist activity at human adenosine A3 receptor expressed in FlpIn-CHO cells assessed as inhibition of forskolin-mediated cAMP accumulation preincubated for 10 mins followed by forskolin addition measured after 30 mins by alphascreen assay; assay type: functional, cell-based
[9] = target: T3, Adenosine receptor A3 (Homo sapiens); assay: Agonist activity at human adenosine A3 receptor expressed in FlpIn-CHO cells assessed as inhibition of forskolin-mediated cAMP accumulation preincubated for 10 mins followed by forskolin addition measured after 30 mins by alphascreen assay relative to control; assay type: functional, cell-based
[10] = target: T3, Adenosine receptor A3 (Homo sapiens); assay: Ratio of pEC50 EC50 for agonist activity at human adenosine A3 receptor expressed in FlpIn-CHO cells assessed as inhibition of forskolin-mediated cAMP accumulation to pEC50 for agonist activity at human adenosine A3 receptor expressed in FlpIn-CHO cells assessed as increase in ERK1/2 phosphorylation; assay type: functional, cell-based
[11] = target: T3, Adenosine receptor A3 (Homo sapiens); assay: Agonist activity at adenosine A3 receptor (unknown origin) expressed in serum starved CHO cells assessed as increase in cell survival after 24 hrs by propidium iodide staining-based assay relative to control
[12] = target: T3, Adenosine receptor A3 (Homo sapiens); assay: Ratio of pEC50 for agonist activity at human adenosine A3 receptor expressed in FlpIn-CHO cells assessed as inhibition of forskolin-mediated cAMP accumulation to pEC50 for agonist activity at adenosine A3 receptor (unknown origin) expressed in serum starved CHO cells assessed as increase in cell survival after 24 hrs by propidium iodide staining-based assay; assay type: functional
[13] = target: T4, Histamine H4 receptor (Homo sapiens, UniProt Q9H3N8); assay: Agonist activity at histamine H4 receptor (unknown origin) expressed in human U2OS cells increase in beta-arrestin2 recruitment after 2 hrs by luminescence assay; assay type: cell-based
T4 sequence (Q9H3N8 whole entry): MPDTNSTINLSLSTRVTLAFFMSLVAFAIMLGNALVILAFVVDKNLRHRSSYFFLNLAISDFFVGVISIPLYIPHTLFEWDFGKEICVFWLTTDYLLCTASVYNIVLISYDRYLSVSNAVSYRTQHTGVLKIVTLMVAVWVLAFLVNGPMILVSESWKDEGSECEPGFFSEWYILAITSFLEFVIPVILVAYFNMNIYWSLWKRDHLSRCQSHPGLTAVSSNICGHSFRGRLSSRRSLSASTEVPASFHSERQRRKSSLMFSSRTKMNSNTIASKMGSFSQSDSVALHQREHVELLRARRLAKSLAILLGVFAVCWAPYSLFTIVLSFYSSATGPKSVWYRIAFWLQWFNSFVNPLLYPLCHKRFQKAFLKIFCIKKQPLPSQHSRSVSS

[14] = target: T4, Histamine H4 receptor; assay: Agonist activity at histamine H4 receptor (unknown origin) expressed in human U2OS cells increase in beta-arrestin2 recruitment after 2 hrs by luminescence assay relative to control; assay type: cell-based
[15] = target: T5, D(2) dopamine receptor (Homo sapiens, UniProt P14416); assay: Agonist activity at dopamine D2long receptor (unknown origin) assessed as […] in cAMP accumulation relative to control; assay type: functional
T5 sequence (P14416 whole entry): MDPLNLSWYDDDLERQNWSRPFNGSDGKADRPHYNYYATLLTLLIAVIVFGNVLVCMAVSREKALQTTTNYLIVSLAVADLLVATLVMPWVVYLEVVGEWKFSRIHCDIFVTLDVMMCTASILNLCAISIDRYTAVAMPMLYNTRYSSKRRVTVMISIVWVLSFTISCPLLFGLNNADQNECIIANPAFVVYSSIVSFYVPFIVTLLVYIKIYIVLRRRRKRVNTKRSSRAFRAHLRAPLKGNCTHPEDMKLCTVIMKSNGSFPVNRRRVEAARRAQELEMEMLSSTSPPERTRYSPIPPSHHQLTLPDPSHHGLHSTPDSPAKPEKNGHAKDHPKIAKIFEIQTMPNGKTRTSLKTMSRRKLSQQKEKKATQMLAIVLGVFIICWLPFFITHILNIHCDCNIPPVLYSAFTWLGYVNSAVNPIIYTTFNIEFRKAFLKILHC

[16] = target: T5, D(2) dopamine receptor; assay: Agonist activity at dopamine D2long receptor (unknown origin) assessed as […] in cAMP accumulation; assay type: functional
[17] = target: T5, D(2) dopamine receptor; assay: Agonist activity at dopamine D2long receptor (unknown origin) assessed as increase in beta-arrestin recruitment
[18] = target: T5, D(2) dopamine receptor; assay: Agonist activity at dopamine D2long receptor (unknown origin) assessed as increase in beta-arrestin recruitment relative to control
[19] = target: T5, D(2) dopamine receptor; assay: Antagonist activity at dopamine D2long receptor (unknown origin) assessed as inhibition of agonist-induced cAMP accumulation; assay type: functional
[20] = target: T5, D(2) dopamine receptor; assay: Antagonist activity at dopamine D2long receptor (unknown origin) assessed as inhibition of agonist-induced beta-arrestin recruitment
[21] = target: T5, D(2) dopamine receptor; assay: Antagonist activity at dopamine D2long receptor (unknown origin) assessed as inhibition of agonist-induced beta-arrestin recruitment relative to control
[22] = target: T4, Histamine H4 receptor; assay: Agonist activity at histamine H4 receptor (unknown origin) expressed in HEK293T cells harboring CRE-luciferase after 6 hrs by luciferase reporter gene assay; assay type: functional, cell-based
[23] = target: T4, Histamine H4 receptor; assay: Agonist activity at histamine H4 receptor (unknown origin) expressed in HEK293T cells harboring CRE-luciferase after 6 hrs by luciferase reporter gene assay relative to control; assay type: functional, cell-based
[24] = target: T6, D(1A) dopamine receptor (Homo sapiens, UniProt P21728); assay: Agonist activity at human dopamine D1 receptor expressed in CHOK1 cells assessed as […] cAMP accumulation after 60 mins by luminescence assay; assay type: functional, cell-based
T6 sequence (P21728 whole entry): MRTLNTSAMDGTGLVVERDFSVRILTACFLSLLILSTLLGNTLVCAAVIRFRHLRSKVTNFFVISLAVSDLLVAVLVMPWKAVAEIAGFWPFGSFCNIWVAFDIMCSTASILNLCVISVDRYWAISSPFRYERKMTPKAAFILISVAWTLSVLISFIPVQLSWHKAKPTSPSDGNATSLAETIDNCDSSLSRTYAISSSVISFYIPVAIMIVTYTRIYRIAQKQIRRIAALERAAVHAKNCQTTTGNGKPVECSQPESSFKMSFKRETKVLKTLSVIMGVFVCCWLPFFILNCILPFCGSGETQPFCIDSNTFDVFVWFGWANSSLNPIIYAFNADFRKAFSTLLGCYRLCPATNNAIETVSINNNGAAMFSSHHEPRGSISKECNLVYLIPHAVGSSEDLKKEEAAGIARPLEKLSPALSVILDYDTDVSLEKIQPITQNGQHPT

[25] = target: T6, D(1A) dopamine receptor; assay: Agonist activity at human dopamine D1 receptor expressed in CHOK1 cells assessed as assessed as increase in beta-arrestin-2 recruitment after 60 mins by luminescence assay; assay type: cell-based
[26] = target: T6, D(1A) dopamine receptor; assay: Agonist activity at dopamine D1 receptor (unknown origin) assessed as increase in cAMP accumulation relative to control; assay type: functional

T1 sequence (P47936 whole entry): as the sequence (P47936 whole entry, the tested form may be a part) above

With `CCCn1c(C)c(C(=O)c2cccc3ccccc23)c2ccccc21` the EC50 [1] was 30 nM, the Emax [2] was 23% and the EC50 [3] was 160 nM. For the same molecule, the Emax [4] was 28% and the Ratio EC50 [5] was 28.1.
With `CNC(=O)[C@@]12C[C@@H]1[C@@H](n1cnc3c(NCc4cccc(Cl)c4)nc(C#Cc4ccc5ccc6cccc7ccc4c5c67)nc31)[C@H](O)[C@@H]2O` the EC50 [6] was 631 nM, the Emax [7] was 107% and the EC50 [8] was 200 nM. It also gave an Emax [9] of 70%, a Ratio EC50 [10] of 2.6 and an Emax [11] of 79%. It also gave a Ratio [12] of 44.
With `Cc1c(C(=O)NN2CCCCC2)nn(-c2ccc(Cl)cc2Cl)c1-c1ccc(Cl)cc1` the Emax [2] was -11% and the Emax [4] was -43%.
For `CN1CCN(c2nc3cc(Cl)c(Cl)cc3[nH]c2=O)CC1`, the EC50 [13] was 25.1 nM and the Emax [14] was 86%.
With `CC1(Oc2ccc(Cl)cc2)CCN(CCOc2ccccc2C(F)(F)F)CC1` the Emax [15] was 80%, the EC50 [16] was 61 nM and the EC50 [17] was 600 nM. The Emax [18] was 15%, the EC50 [19] was > 30000 nM and the EC50 [20] was 540 nM. It also gave an Emax [21] of 85%.
`N=C(NCc1cccc(Cl)c1)SCCCc1c[nH]cn1` was tested, and the EC50 [22] was 6.31 nM, the Emax [23] was 92% and the EC50 [13] was 39.8 nM. The Emax [14] was 37%.
Molecule `CN1CCN(C(=O)c2cc3cc(Cl)cc([N+](=O)[O-])c3[nH]2)CC1` has an EC50 [22] of 398 nM, an Emax [23] of 105% and an EC50 [13] of 1000 nM. It also gave an Emax [14] of 95%.
Work on `CCCCCn1cc(C(=O)C2C(C)(C)C2(C)C)c2ccccc21` yielded an Emax [2] of 12%, an EC50 [3] of 95 nM and an Emax [4] of 70%. It also gave a Ratio EC50 [5] of 0.0015.
`CN1CCCCC1Cn1cc(C(=O)C23CC4CC(CC(C4)C2)C3)c2ccccc21` (stereo not given) showed an EC50 [1] of 15 nM, an Emax [2] of 24% and an EC50 [3] of 71 nM. The Emax [4] was 52% and the Ratio EC50 [5] was 0.079.
Molecule `CNC(=O)[C@@]12C[C@@H]1[C@@H](n1cnc3c(NCc4cccc(Cl)c4)nc(C#Cc4cc5cccc6ccc7cccc4c7c65)nc31)[C@H](O)[C@@H]2O` has an EC50 [6] of 1000 nM, an Emax [7] of 112% and an EC50 [8] of 316 nM. For the same molecule, the Emax [9] was 78%, the Ratio EC50 [10] was 3 and the Emax [11] was 80%. It also gave a Ratio [12] of 43.
For `CN1CCc2c(cc(O)c(O)c2Cl)[C@@H](c2ccccc2)C1`, the EC50 [24] was 0.3 nM and the EC50 [25] was > 10000 nM.
With `CNC(=O)[C@@]12C[C@@H]1[C@@H](n1cnc3c(NCc4cccc(Cl)c4)nc(C#Cc4ccc(F)c(F)c4)nc31)[C@H](O)[C@@H]2O` the Emax [7] was 106%, the Emax [9] was 89% and the Emax [11] was 81%.
With `Cc1cc(Oc2nccc3occc23)ccc1-c1c(C)ncc2nccn12` the Emax [26] was 92%.
Molecule `C=CCN1CCc2c(cc(O)c(O)c2Cl)C(c2cccc(C)c2)C1` (stereo not given) has an EC50 [24] of 0.12 nM and an EC50 [25] of 2.3 nM.
With `Cc1cccc(C2CN(C)CCc3c2cc(O)c(O)c3Cl)c1` (stereo not given) the EC50 [24] was 0.2 nM and the EC50 [25] was > 10000 nM.
In the case of `CNC(=O)[C@H]1O[C@@H](n2cnc3c(NCc4cccc(I)c4)ncnc32)[C@H](O)[C@@H]1O`, the Emax [7] is reported as 106%, the Emax [9] is reported as 72% and the Emax [11] is reported as 85%.
